Where two headings read alike, the source gives them in different places.
Experiments:
[1] = cmc by conductivity; assay type: physicochemical; conditions: conductivity measurements; BAC mixture C12 (70%) and C14 (30%)
[2] = system: Candida albicans ATCC 90028; assay: MIC broth microdilution; assay type: cell-based; conditions: C. albicans
Procedure: (§1) The antimicrobial activity of these compounds was assessed against selected yeast and bacterial strains: Candida albicans ATCC 90028 (CA9), Candida rugosa ATCC 10571 (CR), Candida glabrata ATCC 66032 (CG), Candida parapsilosis ATCC 22019 (CP), Candida tropicalis ATCC 7349 (CT), Candida auris ATCC 21092 (CA), and Cyberlindnera jadinii ATCC 60459. Frozen yeast stocks were plated on Sabouraud agar (SBA) and incubated at 30 °C for 24 h. Three to four colonies from each strain were then suspended in RPMI 1640 (Roswell Park Memorial Institute medium, Sigma- Aldrich, Merck, Darmstadt, Germany) to prepare bacterial dispersions of ~1.5 × 10^6 CFU/mL.
(§2) A broth microdilution assay was used to calculate MIC values. Twofold serially diluted compounds in RPMI 1640 medium (from 256 to 2 μg/mL), were dispensed (100 μL per well) into a 96-well plate. Then, 100 μL of a yeast starter culture was added to each well to reach a final inoculum of 7.5 × 10^5 CFU/mL. Wells containing only nutrient broth without the tested surfactant served as growth controls. Microbial growth was assessed by turbidity, which reflects increases in biomass and cell count. […] To confirm the obtained MICs, 20 μL of 0.015% (w/v) resazurin was dispensed to each well and incubated for 3 h at 30 °C. Metabolic activity was evidenced by a color change from blue to pink, thereby confirming the MIC value.

[3] = system: Candida auris ATCC 21092; assay: MIC broth microdilution; assay type: cell-based; conditions: C. auris
Procedure: as §1, §2

[4] = system: Candida glabrata ATCC 66032; assay: MIC broth microdilution; assay type: cell-based; conditions: C. glabrata
Procedure: as §1, §2

[5] = system: Candida parapsilosis ATCC 22019; assay: MIC broth microdilution; assay type: cell-based; conditions: C. parapsilosis
Procedure: as §1, §2

[6] = system: Candida rugosa ATCC 10571; assay: MIC broth microdilution; assay type: cell-based; conditions: C. rugosa
Procedure: as §1, §2

[7] = system: Candida tropicalis ATCC 7349; assay: MIC broth microdilution; assay type: cell-based; conditions: C. tropicalis
Procedure: as §1, §2

[8] = system: Cyberlindnera jadinii ATCC 60459 (C. jardinii); assay: MIC broth microdilution; assay type: cell-based; conditions: C. jardinii
Procedure: as §1, §2

[9] = system: erythrocytes; assay: Hemolytic activity assay; assay type: cell-based; conditions: rabbit erythrocytes
Procedure: Fresh rabbit blood was obtained from the Animal Facility of the CID-CSIC (Research and Development Center, Spanish National Research Council, Barcelona, Spain). Sample collection was conducted in strict compliance with the bioethical guidelines established under Spanish legislation. Erythrocytes were isolated by centrifugation (3000 rpm/10 min). The supernatant was discarded, and the erythrocytes were washed three times with PBS (phosphate-buffered saline, pH 7.4) and then resuspended in PBS at a concentration of 8 × 10^9 cells/mL. Subsequently, varying volumes of a concentrated surfactant solution were added to Eppendorf tubes containing 25 μL of erythrocyte suspension. PBS was then added to bring the total volume to 1 mL. The samples were gently shaken for 10 min at room temperature and centrifuged at 10,000 rpm for 5 min. Hemolysis was evaluated by measuring the absorbance of the supernatant at 540 nm and comparing it to that of a 100% hemolysis control (erythrocytes treated with distilled water). The HC50, defined as the surfactant concentration that induces 50% hemolysis, was determined from the concentration–response curves: % hemolysis= Abstest compound/AbsBasal haemolytic activity ×100

[10] = system: Daphnia magna; assay: Acute toxicity, immobilization test; assay type: in vivo; conditions: Daphnia magna immobilization, 48 h of exposure; 95% confidence intervals in parentheses
Procedure: Aquatic toxicity evaluation was performed using Daphnia magna following established protocols. This bioassay method employs laboratory-cultured freshwater microcrustaceans to evaluate surfactant toxicity in aquatic environments. Test organisms were utilized during their initial 24 h life stage to ensure consistency. The endpoint measurement focused on mobility impairment, specifically the loss of swimming capability after gentle stimulation lasting 15 s. Testing conditions included controlled water chemistry parameters: pH maintained at 8.0, calcium-to-magnesium ratio of 4:1, and total hardness of 250 mg/L as CaCO3. All experiments were conducted under dark conditions at 20 °C. The experimental design incorporated ten test concentrations for each surfactant compound, distributed in geometric progression. Each concentration level included 20 Daphnia specimens distributed across four replicate groups of five organisms each. Mobility assessment occurred at 48 h post-exposure, with immobilization percentages plotted against concentration using probability–logarithmic scaling.

[11] = value in parentheses, read-out: MIC

Substance: benzalkonium chloride [BAC, reference compound]
- cmc [1]: 5.2 mM
- MIC ([2]; RPMI 1640, 24 h, 30 °C): 8 µg/mL
- MIC [2, 11]: 24 µM
- MIC ([3]; RPMI 1640, 24 h, 30 °C): 32 µg/mL
- MIC [3, 11]: 98 µM
- MIC ([4]; RPMI 1640, 24 h, 30 °C): 8 µg/mL
- MIC [4, 11]: 24 µM
- MIC ([5]; RPMI 1640, 24 h, 30 °C): 4 µg/mL
- MIC [5, 11]: 12 µM
- MIC ([6]; RPMI 1640, 24 h, 30 °C): 8 µg/mL
- MIC [6, 11]: 24 µM
- MIC ([7]; RPMI 1640, 24 h, 30 °C): 4 µg/mL
- MIC [7, 11]: 12 µM
- MIC ([8]; RPMI 1640, 24 h, 30 °C): 16 µg/mL
- MIC [8, 11]: 48 µM
- HC50 ([9]; 10 min, room temperature): 31 ± 0.3 µg/mL
- HC50 ([9]; value in parentheses): 92 ± 0.8 µM
- EC50 [10]: 0.039 (0.023–0.05) μg/mL

Reference: publication PMC12452389, “Arginine-Derived Cationic Surfactants Containing Phenylalanine and Tryptophan: Evaluation of Antifungal Activity, Biofilm Eradication, Cytotoxicity, and Ecotoxicity” (Journal of Xenobiotics, 2025)
